Source: US20240350512A1, “CYTOSKELETAL TENSION REGULATORS AND FAS LIGAND-COMBINATION COMPOSITIONS AND METHODS OF TREATMENT USING THE SAME” (Yale University, priority 2021, published 2024)

B1: Fas ligand: human recombinant Fas ligand, protein having the amino acid sequence SEQ ID NO: 1 (protein, listed as Homo sapiens)
chain: MQQPFNYPYPQIYWVDSSASSPWAPPGTVLPCPTSVPRRPGQRRPPPPPPPPPLPPPPPPPPLPPLPLPPLKKRGNHSTGLCLLVMFFMVLVALVGLGLGMFQLFHLQKELAELRESTSQMHTASSLEKQIGHPSPPPEKKELRKVAHLTGKSNSRSMPLEWEDTYGIVLLSGVKYKKGGLVINETGLYFVYSKVYFRGQSCNNLPLSHKVYMRNSKYPQDLVMMEGKMMSYCTTGQMWARSSYLGAVFNLTSADHLYVNVSELSLVNFEESQTFFGLYK

How the values were obtained:
[1] = system: Fas receptors on HUVECs; assay: Immunostaining of surface Fas receptors on HUVECs; type: cell-based; conditions: 2 hours; regardless of the treatment
Protocol: (§1) FIGS. 2A-2E: Fas receptor expression on the cancer cell surface. FIG. 2A: Addition of either Fasudil, Blebbistatin, or GW5074 to the cell culture medium for 2 hours increased the Fas receptor staining on the cancer cells, but not on HUVECs. […] Fold increase of Fas staining density as response to treatment with FIG. 2C: Fasudil, FIG. 2D: Blebbisatin, and FIG. 2E: GW5074.
(§2) It was speculated that the active Raf-1, due to increased intracellular tension in cancer cell, can cause lack of Fas receptors on the cell surface and that either inhibition of Raf-1 or reduction of mechanical tension in the cytoskeleton can restore the Fas receptors on cell surface. To test this theory, U87 (glioblastoma), A549 (non-small cell lung cancer, resistant to apoptosis, FAS ligand alone increases proliferation), HepG2 (liver cancer), PC3 (prostate cancer), and SUM159 (triple negative breast cancer) cells were treated either with 20 μM Raf-1 inhibitor GW5074, 40 μM ROCK inhibitor Fasudil, or 10 μM myosin inhibitor Blebbistatin for 2 hours.

[2] = system: U87 cells; type: cell-based; conditions: for cell viability in U87 cells, drug combined with Fas ligand: Fas ligand 400 ng/mL with 40 μM Fasudil, 10 μM Blebbistatin or 20 μM GW5074
Excerpt: FIGS. 3A-3E: Fortified Fas-mediated apoptosis in cancer cells. […] FIG. 3B: representative light microscopy images of U87 cells showing the effect of Fasudil-Fas ligand combination. For the other cancer cell types see FIG. 7. Fasudil-Fas ligand combination decreased the viability of A549, HepG2, SUM159, PC3, and BT549 cells synergistically (FIGS. 3C-3D).
(§3) After showing that Fas receptor expression on the cell surface can be increased with different ques targeting cytoskeletal tension, the Fas-mediated apoptosis triggered by the exogenous Fas ligand when combined with Fasudil, Blebbistain, or GW5074 was studied. The cell viability by quantifying the ATP level present in the cell culture medium after 48 hours of treatment was assessed.

[3] = system: surface Fas receptors of cancer cells (U87, A549, HepG2, PC3, and SUM159 cells); assay: Immunostaining of surface Fas receptors on cancer cells; type: cell-based; conditions: 2 hours; 40 μM Fasudil, 10 μM Blebbistatin or 20 μM GW5074; range over U87, A549, HepG2, PC3, SUM159
Protocol: as §1
In the present study, the effect of the ROCK inhibitor Fasudil, Myosin-II inhibitor Blebbistatin, or the Raf-1 inhibitor GW5074 on Fas receptor translocation on surface of U87, A549, HepG2, PC3, and SUM159 cells was evaluated. The effect of these drugs on cell viability when used alone or in combination with exogenous, recombinant Fas ligand was analyzed. Next, the effects of Fasudil and Fas ligand combination on glioblastoma growth and on viability of non-cancerous cells in engineered brain organoids was investigated. Finally, the in vivo efficacy of the Fasudil-Fas ligand combination on preventing tumor growth in a xenograft U87 tumor model in nude mice was tested.
as §2

[4] = system: U87 xenograft tumor; assay: U87 xenograft tumor model in nude mice; type: in vivo; conditions: for average tumor size: one month after tumor initiation, intraperitoneal injection twice a week for four weeks; for median survival probability: terminal point 1000 mm^3
Protocol: Further, the anti-tumor efficacies of Fas ligand and Fasudil combination using a U87 xenograft tumor model in nude mice were evaluated. Fas ligand and Fasudil were administrated by intraperitoneal injection when the subcutaneous tumor grew to palpable size >50 mm^3 twice a week for four weeks. The mice were primed with either Fasudil or saline 24 hours before the injection of Fasudil and Fas ligand together. Only Fasudil, only Fas ligand, and only saline injections were made in the control groups. 7-10 mice with tumor volumes ranging from 50-200 mm^3 were randomly assigned to each treatment arm. Terminal point for the tumor growth was determined as 1000 mm^3.

[5] = system: SUM159 cells; type: cell-based
Protocol: as §3

[6] = system: BT549 cells; type: cell-based
Protocol: as §3

[7] = system: A549 cells; type: cell-based
Protocol: as §3

[8] = system: HepG2 cells; type: cell-based
Protocol: as §3

[9] = system: PC3 cells; type: cell-based
Protocol: as §3

Row | Molecule | Fas staining of HUVECs [1] | cell viability in U87 cells, drug combined with Fas ligand [2] | increase of immunostaining of surface Fas receptors of cancer cells [3] | average tumor size [4] [mm3] | median survival probability [4] [%] | cell viability [2] | cell viability [5] | cell viability [6] | cell viability [7] | cell viability [8] | cell viability [9]
1 | O=C1Nc2ccc(I)cc2/C1=C/c1cc(Br)c(O)c(Br)c1 [GW5074] | negligible | decreased cell viability significantly | 1.62-2.30 folds | – | – | – | – | – | – | – | –
2 | O=S(=O)(c1cccc2cnccc12)N1CCCNCC1 [Fasudil, fasudil] | negligible | decreased cell viability significantly | 2.12-3.28 folds | 584.4±113.8 | 28 | – | – | – | – | – | –
3 | Cc1ccc2c(c1)C(=O)C1(O)CCN(c3ccccc3)C1=N2 (stereo not shown) [Blebbistatin, blebbistatin] | negligible | decreased cell viability significantly | 1.76-2.15 folds | – | – | – | – | – | – | – | –
4 | B1 | – | – | – | 602.2±195.7 | 27 | 55.6 % of the control | 59.9 % of the control | 58.0 % of the control | 67.8 % of the control | 44.6 % of the control | 80.2 % of the control
